Values after ≈ are worked out from the molar mass of the structure shown. Some results are limits rather than exact numbers.

Data set [1] concerns Klebsiella pneumonia ATCC 43816. The experiment in a line: Minimal Inhibitory Concentration (MIC) broth dilution assay. As to conditions: Klebsiella pneumoniae, ATCC43816, 20 h, read-out: MIC Klebsiella pneumoniae ATCC43816. It counts as cell-based. A digest of the protocol: (§1)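 Broth dilution MIC in cation-adjusted Mueller Hinton broth, final inoculum 5×10^5 CFU/mL, serial 2-fold compound dilutions from DMSO stocks. Plates incubated 20 hours at 35° C. in ambient air; MIC read visually as lowest concentration inhibiting visible growth.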

For data set [2], the system named is Escherichia coli ATCC 25922. The description is as above. The conditions noted are these: ATCC25922, 20 h, read-out: MIC Escherichia coli ATCC 25922. It counts as cell-based. In outline:
as §1

Data set [3] in a line: Human microsome stability assay. The data set is classed as in vitro ADME. The conditions noted are these: 1 μM test compound, 0.5 mg/mL liver microsomal protein, NADPH regenerating system, 37° C.; <7 low, 7-16.2 medium, >16.2 high. As for the experimental part: The human microsomal stability assay is used for early assessment of metabolic stability of a test compound in human liver microsomes.
Human liver microsomes (Cat.NO.: 452117, Corning, USA) were pre-incubated with test compound for 10 minutes at 37° C. in 100 mM potassium phosphate buffer, pH 7.4. The reactions were initiated by adding NADPH regenerating system. The final incubation mixtures contained 1 μM test compound, 0.5 mg/mL liver microsomal protein, 1 mM MgCl2, 1 mM NADP, 1 unit/mL isocitric dehydrogenase and 6 mM isocitric acid in 100 mM potassium phosphate buffer, pH 7.4. After incubation times of 0, 3, 6, 9, 15 and 30 minutes at 37° C., 300 μL of cold acetonitrile (including internal standard) was added to 100 μL incubation mixture to terminate the reaction. Following precipitation and centrifugation, the amount of compound remaining in the samples were determined by LC-MS/MS. Controls of no NADPH regenerating system at zero and 30 minutes were also prepared and analyzed. […] (Human microsome clearance: <7 mL/min/kg (low); 7-16.2 mL/min/kg (medium); >16.2 mL/min/kg (high))
On the technique in general: Liver microsomes are a subcellular fraction often used to study metabolism.

For data set [4], the system named is efflux-deficient E. coli strains. The conditions noted are these: Bioorganic Chemistry 102 (2020) 104055; cited from earlier work.
The test system of data set [5] is LPS synthesis pathway. The conditions noted are these: Bioorganic Chemistry 102 (2020) 104055; cited from earlier work.

As to `O=C(c1cnn2cccnc12)N1CCc2cc(S(=O)(=O)N3CCN(c4cc(C(F)(F)F)cc(Cl)n4)CC3)ccc21` [Example 034, [5-[4-[6-Chloro-4-(trifluoromethyl)-2-pyridyl]piperazin-1-yl]sulfonylindolin-1-yl]-pyrazolo[1,5-a]pyrimidin-3-yl-methanone], the MIC in data set [1] and in data set [2] was 0.92 mg/L (≈ 1.55 µM) in each case. Also, in data set [3], the “Clearance of Human microsome” value came to 0.372 L/h/kg.

Consider `CC(=O)Oc1ccc(C(=O)N2CCc3cc(S(=O)(=O)N4CCN(c5cc(C(F)(F)F)cc(Cl)n5)CC4)ccc32)cc1OC(C)=O` [Example 043, [2-Acetoxy-4-[5-[4-[6-chloro-4-(trifluoromethyl)-2-pyridyl]piperazin-1-yl]sulfonylindoline-1-carbonyl]phenyl]acetate], for which the MIC was found to be 2.1 mg/L (≈ 3.15 µM) in data set [1] and 4.2 mg/L (≈ 6.3 µM) in data set [2]. Besides, in data set [3], the “Clearance of Human microsome” value is 0.372 L/h/kg.

As for `O=C(CNCCO)N1CCc2cc(S(=O)(=O)N3CCN(c4cc(C(F)(F)F)cc(Cl)n4)CC3)ccc21` [Example 041, 1-[5-[4-[6-Chloro-4-(trifluoromethyl)-2-pyridyl]piperazin-1-yl]sulfonylindolin-1-yl]-2-(2-hydroxyethylamino)ethanone], the MIC in data set [1] amounted to 8.3 mg/L (≈ 15.1 µM); in data set [2], 1 mg/L (≈ 1.82 µM). In addition, in data set [3], the “Clearance of Human microsome” value was determined as 0.372 L/h/kg.

Turning to `N#Cc1cc(Cl)nc(N2CCN(S(=O)(=O)c3ccc(NC(=O)c4cccc(CNCCCN)c4)cc3)CC2)c1` [Example 020, 3-[(3-Aminopropylamino)methyl]-N-[4-[4-(6-chloro-4-cyano-2-pyridyl)piperazin-1-yl]sulfonylphenyl]benzamide], the MIC in data set [1] was 2.5 mg/L (≈ 4.4 µM); in data set [2] it was 1.2 mg/L (≈ 2.11 µM). Moreover, in data set [3], the “Clearance of Human microsome” value is 0.528 L/h/kg.

Take `NCCCNCc1ccc(C(=O)Nc2ccc(S(=O)(=O)N3CCN(c4nccc(C(F)(F)F)n4)CC3)cc2)cc1` [Example 012, 4-[(3-Aminopropylamino)methyl]-N-[4-[4-[4-(trifluoromethyl)pyrimidin-2-yl]piperazin-1-yl]sulfonylphenyl]benzamide]: the MIC in data set [1] was 3.6 mg/L (≈ 6.23 µM); in data set [2] it was 1.8 mg/L (≈ 3.12 µM). Besides, the “Clearance of Human microsome” value in data set [3] amounted to 0.372 L/h/kg.

On to `NCCCN1CCN(c2cccc(C(=O)Nc3ccc(S(=O)(=O)N4CCN(c5cc(C(F)(F)F)cc(Cl)n5)CC4)cc3)c2)CC1` [Example 068, 3-[4-(3-Aminopropyl)piperazin-1-yl]-N-[4-[4-[6-chloro-4-(trifluoromethyl)-2-pyridyl]piperazin-1-yl]sulfonylphenyl]benzamide], for which the MIC in data set [1] came out at 2.1 mg/L (≈ 3.15 µM); in data set [2] it was 1 mg/L (≈ 1.5 µM). The “Clearance of Human microsome” value in data set [3] turned out to be 0.372 L/h/kg.

Turning to `O=C(Nc1ccc(S(=O)(=O)N2CCN(c3cc(C(F)(F)F)cc(Cl)n3)CC2)cc1)c1cccc(CNCCCN2CCNCC2)c1` [Example 078, N-[4-[4-[6-chloro-4-(trifluoromethyl)-2-pyridyl]piperazin-1-yl]sulfonylphenyl]-3-[(3-piperazin-1-ylpropylamino)methyl]benzamide], the MIC in data set [1] turned out to be 5.7 mg/L (≈ 8.38 µM); in data set [2], 1.4 mg/L (≈ 2.06 µM). Further, in data set [3], the “Clearance of Human microsome” value turned out to be 0.372 L/h/kg.

Consider `NCCCNCc1ccc(C(=O)Nc2ccc(S(=O)(=O)N3CCN(c4cc(C(F)(F)F)cc(Cl)n4)CC3)cc2)cc1` [Example 001, 4-[(3-Aminopropylamino)methyl]-N-[4-[4-[6-chloro-4-(trifluoromethyl)-2-pyridyl]piperazin-1-yl]sulfonylphenyl]benzamide], for which the MIC in data set [1] was 1.5 mg/L (≈ 2.45 µM); in data set [2], 0.51 mg/L (≈ 0.835 µM). Moreover, the “Clearance of Human microsome” value in data set [3] was found to be 0.372 L/h/kg.

Take `O=C(C1=NOC2(CCCNC2)C1)N1CCc2cc(S(=O)(=O)N3CCN(c4cc(C(F)(F)F)cc(Cl)n4)CC3)ccc21` (stereo not drawn) [Example 039]: the “Clearance of Human microsome” value in data set [3] is 0.564 L/h/kg.

Take `CC(=O)N1CCc2cc(S(=O)(=O)N3CCN(c4cc(Cl)cc(C(F)(F)F)c4)CC3)ccc21` [Example F-1, reference compound]: the MIC in data set [1] and in data set [2] was over 24 mg/L throughout. In data set [3], the “Clearance of Human microsome” value was found to be 0.84 L/h/kg. For the same molecule, the “antibiotic activity against efflux-deficient E. coli strains” value in data set [4] is “antibiotic activity”. For the same molecule, the “LPS synthesis pathway inhibition activity” value in data set [5] was “LPS synthesis pathway inhibition activity”.

What is called MIC is the smallest concentration in the dilution series that meets the test's criterion for growth inhibition.

Source of the values: US20260217672A1, “BENZAMIDE COMPOUNDS FOR TREATMENT OF BACTERIAL INFECTIONS” (Hoffmann-La Roche Inc., priority 2022, published 2026).
